Assay results published in US9005667B1, “Treating leukemia with a whole, leech saliva extract” (priority 2012, dated 2015).

Columns and labels:
Salmonella typhi = assay: Kirby-Bauer disc diffusion; type: cell-based; details: reference antibiotic disc (5 μg)
[1] = test system: Candida albicans ATCC10231; assay: Kirby-Bauer disc diffusion; type: cell-based; details: reference antibiotic disc (100unit)
Excerpt: (§1) Experimental procedures include the following steps: • 1.

[2] = test system: Cryptococcus neoformans ATCC90112; assay: Kirby-Bauer disc diffusion; type: cell-based; details: reference antibiotic disc (100unit)
Excerpt: as §1

[3] = test system: alloxan induced-diabetic rats; assay: Antihyperglycemic activity: fall in fasting blood glucose in alloxan induced-diabetic rats; type: in vivo, rat

O=C(O)c1cn(C2CC2)c2cc(N3CCNCC3)c(F)cc2c1=O [Cipro, ciprofloxacin]
Zone of inhibition, Sal. typhi (Salmonella typhi): 35 mm

C[C@@H]1[C@H](O)[C@@H](C)/C=C/C=C/CC/C=C/C=C/C=C/C=C/C(O[C@H]2O[C@H](C)[C@@H](O)[C@H](N)[C@@H]2O)CC2O[C@](O)(CC(O)C(O)CCC(O)CC(O)CC(O)CC(=O)O[C@H]1C)CC(O)C2C(=O)O (stereo partly drawn) [Nystatin, nystatin]
Zone of inhibition, C. albicans [1]: 10 mm | Zone of inhibition, C. neoformance [2]: 9 mm

insulin: insulin from bovine pancreas (≧27 units/mg)
FBG ([3]; all insulin-injected rats, after two hours of injection (p<0.001)): sharp significant decrease | FBG difference between normal rats and treated diabetic rats ([3]; at either dose): No significant difference | FBG ([3]; insulin 10 units/kg b.w, after 8 hours of treatment): returned to the diabetic state
